# Laboratory results published in patent US20260107938A1, “HERBICIDE/SAFENER COMBINATION BASED ON SAFENERS FROM THE CLASS OF SUBSTITUTED [(1,5- DIPHENYL-1H-1,2,4-TRIAZOL-3-YL)OXY]ACETIC ACIDS AND THEIR SALTS” (BAYER AKTIENGESELLSCHAFT, priority 2022, published 2026).
# Tested on: summer wheat (TRZAS; cv. Triso)
# Assay: Greenhouse post-emergence trial: reduction in herbicide damage to summer wheat by safener
# Assay type: in vivo
# Parameters: key to Reduction in damage by safener (difference): difference in visual damage, % points (0-100% scale vs untreated)
# Conditions: 21 days after application
# Experimental: Effect of selective herbicide/safener combinations of the invention using the example of reduction in damage to summer wheat (TRZAS):
# The seeds of the crop plants to be treated were laid out in soil in plastic pots (diameter ˜8 cm), covered with soil and grown in a greenhouse under good conditions for germination and growth. The trial plants were treated at the early leaf stage (BBCH12).
# For this purpose, the herbicides and safeners used were formulated as wettable powders (WP), mixed in accordance with the dose specified in each case, and sprayed onto the above-ground parts of the plants as an aqueous suspension at a water application rate corresponding to 300 l/ha with addition of wetting agent (Mero, 1.5 l/ha).
# The dose of the respective herbicides was chosen here such that it causes visually apparent damage (min. 30%, max. 70%) compared to untreated crop plants at the evaluation time on a control group of crop plants without safener treatment that were included in the same trial. After application, the plants were cultivated under good growth conditions in a greenhouse. 21 days after application, the herbicide damage was assessed visually. The damage was assessed visually on a scale of 0-100% by comparison with untreated control plants, and averaged over 2 repeats per treatment.
# 0%=no noticeable effect compared to the untreated plant 20%=the treated plant population has 20% damage compared to the untreated control population (e.g. growth height, leaf damage, etc.)
# 100%=treated plants completely damaged/killed.
# The safeners were each used at an application rate of 80 g/ha.
# [1] = herbicide B19 100 g a.i./ha + safener 80 g/ha
# [2] = herbicide B110 50 g a.i./ha + safener 80 g/ha
# [3] = herbicide B122 50 g a.i./ha + safener 80 g/ha
# [4] = herbicide B123 50 g a.i./ha + safener 80 g/ha
SMILES,Damage to the plant on application of herbicide + safener [1] [%],Reduction in damage by safener (difference) [1],Reduction in damage by safener (in %) [1] [%],Damage to the plant on application of herbicide + safener [2] [%],Reduction in damage by safener (difference) [2],Reduction in damage by safener (in %) [2] [%],Damage to the plant on application of herbicide + safener [3] [%],Reduction in damage by safener (difference) [3],Reduction in damage by safener (in %) [3] [%],Damage to the plant on application of herbicide + safener [4] [%],Reduction in damage by safener (difference) [4],Reduction in damage by safener (in %) [4] [%]
"COC(=O)COc1nc(-c2ccc(Cl)cc2F)n(-c2ccc(Cl)cc2F)n1 [Compound A1, methyl {[1,5-bis(4-chloro-2-fluorophenyl)-1H-1,2,4-triazol-3-yl]oxy}acetate]",0,30,100,0,70,100,0,55,100,10,60,86
"COC(=O)COc1nc(-c2ccc(F)cc2F)n(-c2ccc(Cl)cc2F)n1 [Compound A5, methyl {[1-(4-chloro-2-fluorophenyl)-5-(2,4-difluorophenyl)-1H-1,2,4-triazol-3-yl]oxy}acetate]",0,30,100,0,70,100,0,55,100,25,45,64
